Source: US6274715A, “Tricyclic erythromycin derivatives” (priority 1997, dated 2001)
Converted amounts (≈) assume the structure as drawn.

Assays:
Type in all cases: cell-based
[1] = test system: STAPHYLOCOCCUS AUREUS ATCC 6538P; assay: In vitro antibacterial activity, MIC, BHI agar dilution; conditions: S. aureus ATCC 6538P, 35-37° C., 20 to 24 hours, unit assumed
[2] = test system: STREPTOCOCCUS PYOGENES PIU 2548; assay: as above; conditions: S. pyogenes PIU 2548, unit assumed
[3] = test system: PSEUDOMONAS AERUGINOSA BMH10; assay: as above; conditions: P. aeruginosa BMH10, unit assumed
ESCHERICHIA COLI JUHL = conditions: E. coli JUHL; BHI agar; unit assumed
[4] = test system: STAPHYLOCOCCUS AUREUS CMX 553; assay: In vitro antibacterial activity, MIC, BHI agar dilution; conditions: S. aureus CMX 553, unit assumed
[5] = test system: STAPHYLOCOCCUS AUREUS A-5278; assay: as above; conditions: S. aureus A-5278, unit assumed
[6] = test system: PSEUDOMONAS AERUGINOSA K799/WT; assay: as above; conditions: P. aeruginosa K799/WT, unit assumed
[7] = test system: PSEUDOMONAS AERUGINOSA K799/61; assay: as above; conditions: P. aeruginosa K799/61, unit assumed
ESCHERICHIA COLI H560 = assay: as above; conditions: E. coli H560, unit assumed
[8] = test system: ENTEROBACTER AEROGENES ATCC 13048; assay: as above; conditions: E. aerogenes ATCC 13048, unit assumed
[9] = test system: STAPHYLOCOCCUS AUREUS 1775; assay: as above; conditions: S. aureus 1775, unit assumed
ESCHERICHIA COLI DC-2 = assay: as above; conditions: E. coli DC-2, unit assumed
ESCHERICHIA COLI KNK 437 = conditions: E. coli KNK 437; BHI agar; unit assumed
[10] = test system: MYCOBACTERIUM SMEGMATIS ATCC 114; assay: In vitro antibacterial activity, MIC, BHI agar dilution; conditions: M. smegmatis ATCC 114, unit assumed
[11] = test system: PROVIDENCIA STUARTII CMX 640; conditions: P. stuartii CMX 640; BHI agar; unit assumed
[12] = test system: STAPHYLOCOCCUS AUREUS CMX 642A; assay: In vitro antibacterial activity, MIC, BHI agar dilution; conditions: S. aureus CMX 642A, unit assumed
PSEUDOMONAS CEPACIA 296I = assay: as above; conditions: P. cepacia 296I, unit assumed
CANDIDA ALBICANS CCH 442 = assay: as above; conditions: C. albicans CCH 442, unit assumed
[13] = test system: STREPTOCOCCUS BOVIS A-5169; assay: as above; conditions: S. bovis A-5169, unit assumed
[14] = test system: STAPHYLOCOCCUS AUREUS A5177; assay: as above; conditions: S. aureus A5177, unit assumed
M[…] ATCC 9341 = assay: as above; conditions: M. luteus ATCC 9341, unit assumed
How it was run: (§1)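 BHI agar dilution, 12 plates; inoculum 1:100 (1:10 slow-growing strains), Steers replicator; 35-37° C, 20-24 h. MIC = lowest conc. with no growth/slight haze/sparse colonies vs growth control, visual read. Erythromycin A reference plate.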

STR[…] 508 = assay: as above; conditions: S. agalactiae CMX 508, unit assumed
How it was run: as §1

M[…] ATCC 4698 = assay: as above; conditions: M. luteus ATCC 4698, unit assumed
How it was run: as §1

EN[…] ATCC 8043 = assay: as above; conditions: E. faecium ATCC 8043, unit assumed
How it was run: as §1

[15] = test system: STREPTOCOCCUS PYOGENES EES61; assay: as above; conditions: S. pyogenes EES61, unit assumed
[16] = test system: KLEBSIELLA PNEUMONIAE ATCC 8045; assay: as above; conditions: K. pneumoniae ATCC 8045, unit assumed
[17] = test system: PSEUDOMONAS AERUGINOSA DPHD-2862; assay: as above; conditions: P. aeruginosa DPHD-2862, unit assumed
[18] = test system: PSEUDOMONAS AERUGINOSA 5007; assay: as above; conditions: P. aeruginosa 5007, unit assumed
[19] = test system: STAPHYLOCOCCUS EPIDERMIDIS 3519; conditions: S. epidermidis 3519; BHI agar; unit assumed
ESCHERICHIA COLI SS = assay: In vitro antibacterial activity, MIC, BHI agar dilution; conditions: E. coli SS, unit assumed
[20] = test system: STAPHYLOCOCCUS AUREUS NCTC10649M; assay: as above; conditions: S. aureus NCTC10649M, unit assumed
[21] = test system: STREPTOCOCCUS PYOGENES 930; assay: as above; conditions: S. pyogenes 930, unit assumed
H. Influenza Dill AMP R = assay: In vitro antibacterial activity against H. Influenza Dill AMP R, MIC; conditions: separate assay, unit assumed
Experimental: Representative compounds of the present invention were assayed in vitro for antibacterial activity as follows: Twelve petri dishes containing successive aqueous dilutions of the test compound mixed with 10 mL of sterilized Brain Heart Infusion (BHI) agar (Difco 0418-01-5) were prepared. Each plate was inoculated with 1:100 (or 1:10 for slow-growing strains, such as Micrococcus and Streptococcus) dilutions of up to 32 different microorganisms, using a Steers replicator block. The inoculated plates were incubated at 35-37° C. for 20 to 24 hours. In addition, a control plate, using BHI agar containing no test compound, was prepared and incubated at the beginning and end of each test.
After incubation, each plate was visually inspected. The minimum inhibitory concentration (MIC) was defmed as the lowest concentration of drug yielding no growth, a slight haze, or sparsely isolated colonies on the inoculum spot as compared to the growth control.
In a separate assay representative compounds of the invention were assayed in vitro for antibacterial activity against the H. Influenza Dill AMP R strain, according to the protocol described above.

[22] = test system: PSEUDOMONAS AERUGINOSA DPHD-5263; assay: In vitro antibacterial activity, MIC, BHI agar dilution; conditions: P. aeruginosa DPHD-5263, unit assumed

Compound | MIC [1] [µg/mL] | MIC [2] [µg/mL] | MIC [3] [µg/mL] | MIC (ESCHERICHIA COLI JUHL) [µg/mL] | MIC [4] [µg/mL] | MIC [5] [µg/mL] | MIC [6] [µg/mL] | MIC [7] [µg/mL] | MIC (ESCHERICHIA COLI H560) [µg/mL] | MIC [8] [µg/mL] | MIC [9] [µg/mL] | MIC (ESCHERICHIA COLI DC-2) [µg/mL] | MIC (ESCHERICHIA COLI KNK 437) [µg/mL] | MIC [10] [µg/mL] | MIC [11] [µg/mL] | MIC [12] [µg/mL] | MIC (PSEUDOMONAS CEPACIA 296I) [µg/mL] | MIC (CANDIDA ALBICANS CCH 442) [µg/mL] | MIC [13] [µg/mL] | MIC [14] [µg/mL] | other results
CC[C@H]1OC(=O)[C@H](C)C(=O)[C@H](C)[C@@H](O[C@@H]2O[C@H](C)C[C@H](N(C)C)[C@H]2O)[C@](C)(OC)C[C@@H](C)C2=NC3CN(CCc4cccc([N+](=O)[O-])c4)CC3N3C(=O)O[C@@]1(C)[C@H]3[C@H]2C (stereo partly drawn) [Example 120] | 0.2 (≈ 0.242 µM) | 0.39 (≈ 0.471 µM) | > 100 | 50 (≈ 60.4 µM) | 0.2 (≈ 0.242 µM) | > 100 | > 100 | 0.78 (≈ 0.942 µM) | 50 (≈ 60.4 µM) | > 100 | > 100 | 50 (≈ 60.4 µM) | > 100 | 0.78 (≈ 0.942 µM) | > 100 | 0.2 (≈ 0.242 µM) | 100 (≈ 121 µM) | > 100 | 0.01 (≈ 0.0121 µM) | 0.2 (≈ 0.242 µM) | MIC (M[…] ATCC 9341): 0.02 µg/mL (≈ 0.0242 µM); MIC (STR[…] 508): 0.01 µg/mL (≈ 0.0121 µM); MIC (M[…] ATCC 4698): 0.2 µg/mL (≈ 0.242 µM); MIC (EN[…] ATCC 8043): 0.05 µg/mL (≈ 0.0604 µM); MIC [15]: 0.01 µg/mL (≈ 0.0121 µM); MIC [16]: > 100 µg/mL; MIC [17]: > 100 µg/mL; MIC [18]: > 100 µg/mL; MIC [19]: 0.39 µg/mL (≈ 0.471 µM); MIC (ESCHERICHIA COLI SS): 0.39 µg/mL (≈ 0.471 µM); MIC [20]: 0.2 µg/mL (≈ 0.242 µM); MIC [21]: > 100 µg/mL; MIC (H. Influenza Dill AMP R): 4 µg/mL (≈ 4.83 µM); MIC [22]: > 100 µg/mL
CC[C@H]1OC(=O)[C@H](C)C(=O)[C@H](C)[C@@H](O[C@@H]2O[C@H](C)C[C@H](N(C)C)[C@H]2O)[C@](C)(OC)C[C@@H](C)C2=NC3CN(CCN(C)C)CC3N3C(=O)O[C@@]1(C)[C@H]3[C@H]2C (stereo partly drawn) [Example 129] | 1.56 (≈ 2.08 µM) | 3.1 (≈ 4.13 µM) | > 100 | 100 (≈ 133 µM) | 1.56 (≈ 2.08 µM) | > 100 | > 100 | 1.56 (≈ 2.08 µM) | 50 (≈ 66.7 µM) | 100 (≈ 133 µM) | > 100 | 50 (≈ 66.7 µM) | > 100 | 50 (≈ 66.7 µM) | > 100 | 1.56 (≈ 2.08 µM) | > 100 | > 100 | 0.05 (≈ 0.0667 µM) | 1.56 (≈ 2.08 µM) | MIC (M[…] ATCC 9341): 0.2 µg/mL (≈ 0.267 µM); MIC (STR[…] 508): 0.05 µg/mL (≈ 0.0667 µM); MIC (M[…] ATCC 4698): 1.56 µg/mL (≈ 2.08 µM); MIC (EN[…] ATCC 8043): 0.39 µg/mL (≈ 0.52 µM); MIC [15]: 0.02 µg/mL (≈ 0.0267 µM); MIC [16]: 100 µg/mL (≈ 133 µM); MIC [17]: > 100 µg/mL; MIC [18]: > 100 µg/mL; MIC [19]: 1.56 µg/mL (≈ 2.08 µM); MIC (ESCHERICHIA COLI SS): 0.78 µg/mL (≈ 1.04 µM); MIC [20]: 1.56 µg/mL (≈ 2.08 µM); MIC [21]: > 100 µg/mL; MIC (H. Influenza Dill AMP R): 64 µg/mL (≈ 85.3 µM); MIC [22]: > 100 µg/mL
CC[C@H]1OC(=O)[C@H](C)C(=O)[C@H](C)[C@@H](O[C@@H]2O[C@H](C)C[C@H](N(C)C)[C@H]2O)[C@](C)(OC)C[C@@H](C)C2=NCC(COC(=O)c3ccccc3)N3C(=O)O[C@@]1(C)[C@H]3[C@H]2C (stereo partly drawn) [Example 139] | 0.1 (≈ 0.13 µM) | 0.39 (≈ 0.505 µM) | > 100 | 25 (≈ 32.4 µM) | 0.1 (≈ 0.13 µM) | > 100 | 100 (≈ 130 µM) | 0.39 (≈ 0.505 µM) | 25 (≈ 32.4 µM) | 100 (≈ 130 µM) | > 100 | 25 (≈ 32.4 µM) | 50 (≈ 64.8 µM) | 0.78 (≈ 1.01 µM) | > 100 | 0.1 (≈ 0.13 µM) | 25 (≈ 32.4 µM) | > 100 | ≤ 0.005 | 0.1 (≈ 0.13 µM) | MIC (M[…] ATCC 9341): 0.05 µg/mL (≈ 0.0648 µM); MIC (STR[…] 508): 0.02 µg/mL (≈ 0.0259 µM); MIC (M[…] ATCC 4698): 0.2 µg/mL (≈ 0.259 µM); MIC (EN[…] ATCC 8043): 0.02 µg/mL (≈ 0.0259 µM); MIC [15]: 0.01 µg/mL (≈ 0.013 µM); MIC [16]: 100 µg/mL (≈ 130 µM); MIC [17]: 100 µg/mL (≈ 130 µM); MIC [18]: > 100 µg/mL; MIC [19]: 0.1 µg/mL (≈ 0.13 µM); MIC (ESCHERICHIA COLI SS): 0.39 µg/mL (≈ 0.505 µM); MIC [20]: 0.1 µg/mL (≈ 0.13 µM); MIC [21]: 25 µg/mL (≈ 32.4 µM); MIC (H. Influenza Dill AMP R): 2 µg/mL (≈ 2.59 µM); MIC [22]: > 100 µg/mL
